ChEMBL document CHEMBL1157062, “Malyngolide dimer, a bioactive symmetric cyclodepside from the panamanian marine cyanobacterium Lyngbya majuscula” (J Nat Prod, 2010)

Legend:
[1] = target: T1, NAD-dependent protein deacetylase sirtuin-2 (Homo sapiens) (UniProt Q8IXJ6); test: Inhibition of SIRT2 at 50 uM
T1 sequence (whole entry): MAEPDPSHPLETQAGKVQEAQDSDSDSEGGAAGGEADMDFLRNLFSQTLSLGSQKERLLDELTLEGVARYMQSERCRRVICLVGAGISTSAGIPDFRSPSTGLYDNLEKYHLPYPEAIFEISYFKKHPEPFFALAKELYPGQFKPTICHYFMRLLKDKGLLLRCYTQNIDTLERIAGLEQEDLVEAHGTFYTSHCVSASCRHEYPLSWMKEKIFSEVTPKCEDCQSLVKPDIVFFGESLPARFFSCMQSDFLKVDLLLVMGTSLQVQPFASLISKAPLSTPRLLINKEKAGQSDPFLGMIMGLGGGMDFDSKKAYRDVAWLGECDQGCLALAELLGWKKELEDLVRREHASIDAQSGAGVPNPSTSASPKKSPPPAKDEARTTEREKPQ

[2] = Cytotoxicity against human NCI-H460 cells assessed as cell viability at 9 uM after 48 hrs by MTT assay; type: cell-based; conditions: read-out: Activity
[3] = Cytotoxicity against human NCI-H460 cells assessed as cell viability at 55 uM after 48 hrs by MTT assay; type: cell-based; conditions: read-out: Activity
[4] = system: Plasmodium falciparum; test: Antiplasmodial activity against Plasmodium falciparum W2 assessed as picogreen-DNA intercalation by microfluorimetric assay; type: functional, organism-based
[5] = target: T1, NAD-dependent protein deacetylase sirtuin-2 (Homo sapiens); test: Inhibition of SIRT2

| inhibition [1] [%] | IC50 [4] [µM] | INH [5] [µM] | SMILES | viability at 48 h, 9 µM [2] [%] | viability at 48 h, 55 µM [3] [%] |
| --- | --- | --- | --- | --- | --- |
| 30 | 19 |  | CCCCCCCCC[C@@]1(CO)CC[C@@H](C)C(=O)O[C@@](CO)(CCCCCCCCC)CC[C@@H](C)C(=O)O1 | 110 | 10 |
|  |  | 0.176 | CCCCCCCCCCC[C@]1(CO)CCCC(=O)O[C@](CO)(CCCCCCCCCCC)CCCC(=O)O1 |  |  |
